The values that follow come from patent publication US12415806B1, “Solid state forms” (AMGEN INC., priority 2019, dated 2025).

The nature of data set [1]: Solubility assessment. The class given is physicochemical. The source says: (§1) Within the pharmaceutical research and development field, the investigation of a suitable solid-state form represents a crucial step. Investigating a solid-state form comprises several decisions, mainly the investigation of an anhydrous, salt or co-crystal form and the investigation of a polymorph of the respective anhydrous, salt or co-crystal. During a lead optimization program, several properties of research compounds are optimized, typically leading to one or a few candidates that continue into exploratory development programs. Typically, in the assessment and optimization of physical chemical parameters during lead optimization, the main focus is on solubility. […] Beyond the optimization of solubility, further physical chemical parameters, such as (1) melting point, (2) thermal behavior, (3) hygroscopicity, (4) crystal habit, (5) polymorphic behavior or physical stability, (6) impurity profile, and (7) chemical stability of the anhydrous or salt form, must be borne in mind when investigating the salt. The melting point of a drug, either as a free base, acid or salt form, should be higher than a certain threshold to allow processing steps such as drying or tabletting. The assessment of thermal behavior, which is typically done by thermogravimetry (TGA) and differential scanning calorimetry (DSC), also includes solid-solid phase transitions. […]

Data set [2] has as its system KRAS^G12C tumors. As to conditions: alone as well as in combination with immune-checkpoint inhibitors; cited from earlier work.
Data set [3] deals with tumors. The conditions noted are these: first dosing cohorts; cited from earlier work.
In data set [4] the test system is KRAS^G12C tumors. As to conditions: preclinical analyses, combination; cited from earlier work.
The nature of data set [5]: Hygroscopicity (moisture uptake versus relative humidity). In kind it is physicochemical.
Source text: as §1, with “transitions. These may be either enantiotropic or monotropic and can be related to the conversion of one polymorph to another or one pseudo-polymorph to another pseudo-polymorph—e.g. a lower solvate or hydrate—or a true polymorph. Hygroscopicity plays a key role in the evaluation of solid-state forms, as this property is highly relevant for many process steps such as drying, storage, blending, granulation, to name but a few. Hygroscopicity can be investigated by dynamic vapor sorption (DVS). Basically, this technique yields information on the amount of moisture that is taken up by the compound at a certain relative humidity level.” for “transitions.”

Data set [6] can be described thus: Polymorph conversion upon heating or slurrying (thermodynamic stability of forms). The class given is physicochemical. The protocol:
Solutions of the compounds of the disclosure were prepared by adding enough solids to a given solvent so that excess solids were present. All forms described below can be obtained from various solvents, including, but not limited, to the specific solvents described in the Examples. The mixture was then agitated in a sealed vial at either ambient or elevated temperature. After a given amount of time, the solids were isolated by vacuum or centrifuge filtration and analyzed.
The crystalline anhydrous Form II and III described herein below convert to crystalline anhydrous Form I upon heating or slurrying.
Crystalline anhydrous Form III melts at 180° C.

A short description of data set [7]: Stability to ultraviolet and visible light in the solid state. The class given is physicochemical. The protocol: (§2) Furthermore, crystalline anhydrous Form I was stable in an excipient compatibility study in 3 prototype blends that were stored for 4 weeks at 40° C./75% RH. Crystalline anhydrous Form I was also stable to ultraviolet and visible light in the solid state.

A short description of data set [8]: Solid state physical and chemical stability on storage (HPLC, XRPD, DSC, TGA). In kind it is physicochemical. As to conditions: 14 weeks at 25° C./60% RH, 40° C./75% RH, 40° C./ambient RH, and 60° C./ambient RH.
Data set [9] can be described thus: Excipient compatibility study in 3 prototype blends. The class given is physicochemical. The conditions noted are these: 3 prototype blends stored for 4 weeks at 40° C./75% RH. The method, then: as §2

Turning to `C=CC(=O)N1CCN(c2nc(=O)n(-c3c(C)ccnc3C(C)C)c3nc(-c4c(O)cccc4F)c(F)cc23)[C@@H](C)C1` (atropisomer, axis not shown) [Compound 1, 6-fluoro-7-(2-fluoro-6-hydroxyphenyl)-1-(4-methyl-2-(2-propanyl)-3-pyridinyl)-4-((2S)-2-methyl-4-(2-propenoyl)-1-piperazinyl)pyrido[2,3-d]pyrimidin-2 (1H)-one], the solubility entry in data set [1] is “good solubility features”.

In the case of `C=CC(=O)N1CCN(c2nc(=O)n(-c3c(C)ccnc3C(C)C)c3nc(-c4c(O)cccc4F)c(F)cc23)[C@@H](C)C1` [Compound 1, 6-fluoro-7-(2-fluoro-6-hydroxyphenyl)-1-(4-methyl-2-(2-propanyl)-3-pyridinyl)-4-((2S)-2-methyl-4-(2-propenoyl)-1-piperazinyl)pyrido[2,3-d]pyrimidin-2 (1H)-one], the “tumor outcome in immune-competent mice” value in data set [2] is recorded as “produced durable cures”. Further, the “anti-tumor activity in clinical trials” value in data set [3] was “demonstrated anti-tumor activity”. Moreover, the “effect on anti-tumor efficacy of chemotherapy and targeted agents” value in data set [4] was “improved the anti-tumor efficacy of chemotherapy and targeted agents”.

In the case of `C=CC(=O)N1CCN(c2nc(=O)n(-c3c(C)ccnc3C(C)C)c3nc(-c4c(O)cccc4F)c(F)cc23)[C@@H](C)C1` [Form I, 6-fluoro-7-(2-fluoro-6-hydroxyphenyl)-1-(4-methyl-2-(2-propanyl)-3-pyridinyl)-4-((2S)-2-methyl-4-(2-propenoyl)-1-piperazinyl)pyrido[2,3-d]pyrimidin-2 (1H)-one], in data set [5] (between 0 and 90% RH at 25° C.), the moisture absorbed is listed as 0.5-1.0 % wt. For the same compound, the “thermodynamic stability among polymorphs identified in the screening process” value in data set [6] (polymorph and salt screen) was “most thermodynamically stable polymorph”. In addition, the “stability to ultraviolet and visible light” value in data set [7] is on record as “stable”. Besides, in data set [8], the “physical and chemical stability in the solid state (no degradation peaks by HPLC, no changes in XRPD, DSC, TGA)” value was “physically and chemically stable”. Also, in data set [9], the “stability in excipient compatibility study” value is listed as “stable”.

Consider `C=CC(=O)N1CCN(c2nc(=O)n(-c3c(C)ccnc3C(C)C)c3nc(-c4c(O)cccc4F)c(F)cc23)[C@@H](C)C1` [Form II, 6-fluoro-7-(2-fluoro-6-hydroxyphenyl)-1-(4-methyl-2-(2-propanyl)-3-pyridinyl)-4-((2S)-2-methyl-4-(2-propenoyl)-1-piperazinyl)pyrido[2,3-d]pyrimidin-2 (1H)-one], for which the moisture absorbed in data set [5] (between 0 and 90% RH at 25° C.) is 2-2.5 % wt. The form conversion result is given as “converts to crystalline anhydrous Form I” in [6] (slurrying in water at 90° C. for 1 hour); “converts to crystalline anhydrous Form I” in data set [6] (upon heating and recrystallization at 193° C.).

`C=CC(=O)N1CCN(c2nc(=O)n(-c3c(C)ccnc3C(C)C)c3nc(-c4c(O)cccc4F)c(F)cc23)[C@@H](C)C1` [Form III, 6-fluoro-7-(2-fluoro-6-hydroxyphenyl)-1-(4-methyl-2-(2-propanyl)-3-pyridinyl)-4-((2S)-2-methyl-4-(2-propenoyl)-1-piperazinyl)pyrido[2,3-d]pyrimidin-2 (1H)-one]: the moisture absorbed in data set [5] (between 0-95% RH at 25° C.) is reported as 7.0 % wt. Further, the form conversion entry in data set [6] (upon melting and recrystallization at 220° C.) is “converts to crystalline anhydrous Form I”.
